Source: PubChem BioAssay AID1963438 (Molecular Pharmacology Branch, DTP, NCI, 2024)

Tested on: NCI-H510 multicellular tumor spheroid growth, % test/control
Experiment: Anticancer human tumor NCI-H510 cell line growth inhibition [Asc];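 further: spheroids exposed to agents for 7 days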;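 on viability, T/C: 100% = DMSO vehicle control wells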
Conditions: for IC50: curve of first compound; for viability, T/C: stronger effect = lower value; active means viability on the fitted dose curve at most 10% of control; inactive means the rest
Procedure, shortened: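 Tumor cells were grown as multicellular spheroids with stromal HUVEC and mesenchymal stem cells and treated singly or in combination. Concentrations fell in half-log steps from the clinical Cmax, or from 10 microM where none was known.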

[1] = second compound 0.1 µM, first compound 0.0316 µM
[2] = second compound 0.1 µM, first compound 0.1 µM
[3] = second compound 0.1 µM, first compound 0.316 µM
[4] = second compound 0.1 µM, first compound 1 µM
[5] = second compound 0.1 µM, first compound 3.16 µM
[6] = second compound 0.1 µM, first compound 10 µM
[7] = second compound 0.316 µM, first compound 0.0316 µM
[8] = second compound 0.316 µM, first compound 0.1 µM
[9] = second compound 0.316 µM, first compound 0.316 µM
[10] = second compound 0.316 µM, first compound 1 µM
[11] = second compound 0.316 µM, first compound 3.16 µM
[12] = second compound 0.316 µM, first compound 10 µM
[13] = second compound 1 µM, first compound 0.0316 µM
[14] = second compound 1 µM, first compound 0.1 µM
[15] = second compound 1 µM, first compound 0.316 µM
[16] = second compound 1 µM, first compound 1 µM
[17] = second compound 1 µM, first compound 3.16 µM
[18] = second compound 1 µM, first compound 10 µM
[19] = second compound 3.16 µM, first compound 0.0316 µM
[20] = second compound 3.16 µM, first compound 0.1 µM
[21] = second compound 3.16 µM, first compound 0.316 µM
[22] = second compound 3.16 µM, first compound 1 µM
[23] = second compound 10 µM, first compound 0.0316 µM
[24] = second compound 10 µM, first compound 0.1 µM
[25] = second compound 10 µM, first compound 0.316 µM
[26] = second compound 10 µM, first compound 1 µM

C=CC(=O)N1CCN(c2nc(=O)n(-c3c(C)ccnc3C(C)C)c3nc(-c4c(O)cccc4F)c(F)cc23)C(C)C1 (stereo not given) + Cc1c(S(C)(=O)=O)c(-c2cc(F)cc(N3CCN(c4ccc(NS(=O)(=O)c5ccc(NC(CCN6CCC(C(=O)OCCCP(=O)(O)O)CC6)CSc6ccccc6)c(S(=O)(=O)C(F)(F)F)c5)cc4)CC3)c2)c(-c2ccc(Cl)cc2)n1C(C)C
inactive: viability, T/C [1] 102% | viability, T/C [2] 110% | viability, T/C [3] 124% | viability, T/C [4] 94.7% | viability, T/C [5] 86.3% | viability, T/C [6] 98.4% | viability, T/C [7] 106% | viability, T/C [8] 103% | viability, T/C [9] 115% | viability, T/C [10] 103% | viability, T/C [11] 109% | viability, T/C [12] 86% | viability, T/C [13] 85.6% | viability, T/C [14] 89.5% | viability, T/C [15] 115% | viability, T/C [16] 121% | viability, T/C [17] 98.1% | viability, T/C [18] 79.3% | viability, T/C [19] 80% | viability, T/C [20] 100% | viability, T/C [21] 117% | viability, T/C [22] 118% | viability, T/C (second compound 3.16 µM, first compound 3.16 µM) 79.7% | viability, T/C (second compound 3.16 µM, first compound 10 µM) 108% | viability, T/C [23] 102% | viability, T/C [24] 106% | viability, T/C [25] 97.8% | viability, T/C [26] 100% | viability, T/C (second compound 10 µM, first compound 3.16 µM) 89.4% | viability, T/C (second compound 10 µM, first compound 10 µM) 81.9%
> 10 µM: IC50 (second compound 0.1 µM) | IC50 (second compound 0.316 µM) | IC50 (second compound 1 µM) | IC50 (second compound 3.16 µM) | IC50 (second compound 10 µM)

COc1c(OCCCN2CCOCC2)ccc2c3n(c(=NC(=O)c4cnc(N)nc4)nc12)CCN3 + Cc1c(S(C)(=O)=O)c(-c2cc(F)cc(N3CCN(c4ccc(NS(=O)(=O)c5ccc(NC(CCN6CCC(C(=O)OCCCP(=O)(O)O)CC6)CSc6ccccc6)c(S(=O)(=O)C(F)(F)F)c5)cc4)CC3)c2)c(-c2ccc(Cl)cc2)n1C(C)C
inactive: viability, T/C (second compound 0.1 µM, first compound 0.00316 µM) 112% | viability, T/C (second compound 0.1 µM, first compound 0.01 µM) 106% | viability, T/C [1] 88.9% | viability, T/C [2] 89.3% | viability, T/C [3] 96.4% | viability, T/C [4] 84.3% | viability, T/C (second compound 0.316 µM, first compound 0.00316 µM) 102% | viability, T/C (second compound 0.316 µM, first compound 0.01 µM) 99.6% | viability, T/C [7] 70.3% | viability, T/C [8] 75% | viability, T/C [9] 89.1% | viability, T/C [10] 53.6% | viability, T/C (second compound 1 µM, first compound 0.00316 µM) 99.8% | viability, T/C (second compound 1 µM, first compound 0.01 µM) 98.1% | viability, T/C [13] 106% | viability, T/C [14] 91.2% | viability, T/C [15] 67.5% | viability, T/C [16] 86.1% | viability, T/C (second compound 3.16 µM, first compound 0.00316 µM) 89.4% | viability, T/C (second compound 3.16 µM, first compound 0.01 µM) 91.6% | viability, T/C [19] 82.6% | viability, T/C [20] 80% | viability, T/C [21] 82.6% | viability, T/C [22] 63.8% | viability, T/C (second compound 10 µM, first compound 0.00316 µM) 66% | viability, T/C (second compound 10 µM, first compound 0.01 µM) 98.4% | viability, T/C [23] 70.9% | viability, T/C [24] 96.3% | viability, T/C [25] 37.6% | viability, T/C [26] 32.2%
0.231 µM: IC50 (second compound 10 µM)
> 1 µM: IC50 (second compound 0.1 µM) | IC50 (second compound 0.316 µM) | IC50 (second compound 1 µM) | IC50 (second compound 3.16 µM)

O=C(c1cc(Cc2n[nH]c(=O)c3ccccc23)ccc1F)N1CCN(C(=O)C2CC2)CC1 + CNC(C)C(=O)NC1CN(S(=O)(=O)c2cccc(S(=O)(=O)N3CCC4CCC(C(=O)NC(c5ccccc5)c5ccccc5)N4C(=O)C(NC(=O)C(C)NC)C3)c2)CCC2CCC(C(=O)NC(c3ccccc3)c3ccccc3)N2C1=O
8.07 µM: IC50 (second compound 0.0316 µM)
8.9 µM: IC50 (second compound 0.1 µM)
9.8 µM: IC50 (second compound 0.316 µM)
inactive: viability, T/C (second compound 0.01 µM, first compound 0.0316 µM) 103% | viability, T/C (second compound 0.01 µM, first compound 0.1 µM) 98.5% | viability, T/C (second compound 0.01 µM, first compound 0.316 µM) 110% | viability, T/C (second compound 0.01 µM, first compound 1 µM) 91.7% | viability, T/C (second compound 0.01 µM, first compound 3.16 µM) 89.4% | viability, T/C (second compound 0.01 µM, first compound 10 µM) 47.9% | viability, T/C (second compound 0.0316 µM, first compound 0.0316 µM) 99.8% | viability, T/C (second compound 0.0316 µM, first compound 0.1 µM) 101% | viability, T/C (second compound 0.0316 µM, first compound 0.316 µM) 96.2% | viability, T/C (second compound 0.0316 µM, first compound 1 µM) 109% | viability, T/C (second compound 0.0316 µM, first compound 3.16 µM) 95% | viability, T/C (second compound 0.0316 µM, first compound 10 µM) 39.7% | viability, T/C [1] 90.3% | viability, T/C [2] 89.2% | viability, T/C [3] 83.2% | viability, T/C [4] 114% | viability, T/C [5] 91.8% | viability, T/C [6] 45.3% | viability, T/C [7] 97.8% | viability, T/C [8] 107% | viability, T/C [9] 117% | viability, T/C [10] 87.5% | viability, T/C [11] 89.1% | viability, T/C [12] 48.9% | viability, T/C [13] 112% | viability, T/C [14] 110% | viability, T/C [15] 104% | viability, T/C [16] 101% | viability, T/C [17] 92.1% | viability, T/C [18] 58%
9.49 µM: IC50 (second compound 0.01 µM)
> 10 µM: IC50 (second compound 1 µM)
